From patent publication US4649157A, “Pharmaceutical compositions containing 5-phenyl-1,3-dioxoalkenyl compounds” (G. D. Searle & Co., priority 1986, dated 1987)

Test system: Leukotriene C4 (LTC4) and leukotriene D4 (LTD4) biosynthesis by cultured rat basophilic leukemia cells (RBL-1 cells)
Test: Inhibition of leukotriene biosynthesis (LTC4 and LTD4, ionophore-induced) in cultured RBL-1 cells, quantitated by radioimmunoassay
Format: cell-based
Details: LTC4 equivalents by [3H]-RIA
Description: Leukotriene C4 (LTC4) and leukotriene D4 (LTD4) biosynthesis by cultured rat basophilic leukemia cells (RBL-1 cells) was induced by incubation of the cells with an ionophore. See B. A. Jakschik, S. Falkenheim, and C. W. Parker, "Precursor Role of Arachidonic Acid in Release of Slow Reacting Substance from Rat Basophilic Leukemia Cells," Proc Natl. Acad. Sci. U.S.A., 74, 4577-4581 (1977). The LTC4 and LTD4 biosynthesis was quantitated at LTC4 equivalents by radioimmunoassay using the Leukotriene C4 [^3 H]-RIA Kit available commercially from New England Nuclear, 549 Albany Street, Boston, Mass. Compounds were screened initially at 10^-4 M or 10^-5 M and compared with nordihydroguaiaretic acid (the reference standard). A compound inhibiting leukotriene synthesis at any given concentration by at least 30% relative to the reference standard was considered active. […] Table A lists IC50 's for representative compounds of this invention.

Row | SMILES | IC50 [µM]
1 | CCOC(=O)CC(=O)C=Cc1ccccc1 [Example 1, ethyl 3-oxo-5-phenyl-4-pentenoate] | 20
2 | CCOC(=O)CC(=O)C=Cc1cccc(Oc2ccccc2)c1 [Example 20, ethyl 3-oxo-5-(3-phenoxyphenyl)-4-pentenoate] | 27
3 | CCOC(=O)CC(=O)C=Cc1cccc(Oc2ccc(Cl)cc2)c1 [Example 21, ethyl 5-[3-(4-chlorophenoxy)phenyl]-3-oxo-4-pentenoate] | 26.5
4 | CCOC(=O)CC(=O)C=Cc1ccc(OC)cc1 [Example 23, ethyl 5-(4-methoxyphenyl)-3-oxo-4-pentenoate] | 67
5 | CCOC(=O)CC(=O)C=Cc1cccc2ccccc12 [Example 27, ethyl 5-(1-naphthyl)-3-oxo-4-pentenoate] | 27.2
